From patent US9593121B2, “Indole substituted pyrrolopyrimidinyl inhibitors of Uba6” (Millennium Pharmaceuticals, Inc., priority 2012, dated 2017) come the findings set out here.

A word on the IC50: it is the concentration needed to halve the response being measured. The term inhibition denotes the relative decrease from the control value, in per cent.

This experiment deals with recombinant human his-UBA6 enzyme (Homo sapiens (Human), UniProt A0AVT1). As to the kind of experiment: UBA6 AlphaScreen Assay. The format is biochemical. The settings on record: for inhibition at 0.123 µM: compound at 0.123 μM. The protocol:
UBA6 AlphaScreen® Assay. The UBA6 enzmatic reaction totals 20 μL and contains 50 mM HEPES (pH 7.5), 0.05% BSA, 0.02% Tween 20, 0.1 mM TCEP, 5 mM MgCl2, 2 μM ATP, 60 nM Flag-Ubiquitin, 20 nM Biotin-his-Use1, and 0.15 nM recombinant human his-UBA6 enzyme. The enzymatic reaction mixture, with and without compound inhibitor, is incubated at 24° C. for 90 minutes in a 384 well plate before termination with 10 μL of Stop/Detection buffer (50 mM HEPES (pH 7.5), 0.05% BSA, 0.02% Tween 20, 0.1 mM TCEP, 20 mM EDTA, 30 μg/ml anti-FLAG Acceptor beads (Perkin Elmer), and 6 μg/mL streptavidin donor beads (Perkin Elmer). After incubation for 2 hours at 24° C. in a dark room, quantification of the AlphaScreen signal is performed on the Pherastar™ (BMG).
For orientation: Bead proximity is the source of the signal in Alpha formats.

Where a name gives a salt, the structure may show the parent alone.

Sequence of recombinant human his-UBA6 enzyme (A0AVT1 whole entry): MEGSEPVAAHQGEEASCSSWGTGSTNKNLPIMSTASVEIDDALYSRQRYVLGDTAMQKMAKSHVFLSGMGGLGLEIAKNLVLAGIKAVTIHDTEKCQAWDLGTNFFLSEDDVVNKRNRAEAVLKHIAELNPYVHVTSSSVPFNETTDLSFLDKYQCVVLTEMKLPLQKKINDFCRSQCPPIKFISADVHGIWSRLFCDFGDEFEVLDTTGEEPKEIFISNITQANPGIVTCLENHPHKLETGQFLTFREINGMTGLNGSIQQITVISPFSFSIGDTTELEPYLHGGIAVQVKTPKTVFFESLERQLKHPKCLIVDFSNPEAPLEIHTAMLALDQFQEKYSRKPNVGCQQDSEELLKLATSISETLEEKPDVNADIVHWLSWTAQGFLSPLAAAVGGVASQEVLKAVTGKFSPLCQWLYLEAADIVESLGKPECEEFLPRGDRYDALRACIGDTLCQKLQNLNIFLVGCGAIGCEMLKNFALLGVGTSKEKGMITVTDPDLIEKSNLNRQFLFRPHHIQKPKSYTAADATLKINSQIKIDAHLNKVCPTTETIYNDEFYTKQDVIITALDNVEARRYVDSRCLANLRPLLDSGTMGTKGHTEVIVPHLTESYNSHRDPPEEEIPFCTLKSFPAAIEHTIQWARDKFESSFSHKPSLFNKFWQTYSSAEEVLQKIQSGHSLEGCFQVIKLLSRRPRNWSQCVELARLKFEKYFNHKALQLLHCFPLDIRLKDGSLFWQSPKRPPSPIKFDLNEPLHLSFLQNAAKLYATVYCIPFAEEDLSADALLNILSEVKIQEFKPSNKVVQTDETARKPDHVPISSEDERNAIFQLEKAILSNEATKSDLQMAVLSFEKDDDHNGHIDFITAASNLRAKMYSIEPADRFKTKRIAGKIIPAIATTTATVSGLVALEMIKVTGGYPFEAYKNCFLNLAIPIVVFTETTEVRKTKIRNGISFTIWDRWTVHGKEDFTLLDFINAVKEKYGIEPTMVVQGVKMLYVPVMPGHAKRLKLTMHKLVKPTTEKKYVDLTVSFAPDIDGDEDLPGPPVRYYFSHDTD

`COc1ccc2cc(-c3ncnc4c3ccn4[C@@H]3C[C@@H](COS(N)(=O)=O)[C@@H](O)C3)[nH]c2c1` [Compound I-07, {(1S,2S,4R)-2-hydroxy-4-[4-(6-methoxy-1H-indol-2-yl)-7H-pyrrolo[2,3-d]pyrimidin-7-yl]cyclopentyl}methyl sulfamate]: the IC50 was ≤ 50 nM and the inhibition at 0.123 µM stood at 90%.
Take `COc1ccc2cc(-c3ncnc4c3ccn4[C@@H]3C[C@@H](COS(N)(=O)=O)[C@@H](O)C3)n(C(=O)OC(C)(C)C)c2c1` [Compound I-10, tert-butyl 2-(7-{(1R,3S,4S)-3-hydroxy-4-[(sulfamoyloxy)methyl]cyclopentyl}-7H-pyrrolo[2,3-d]pyrimidin-4-yl)-6-methoxy-1H-indole-1-carboxylate]: the concentration for half-maximal inhibition (IC50) lay within 50 to 2000 nM. For the same compound, the inhibition at 1.11 µM (compound at 1.11 μM (footnote ‡)) is 26%.
Regarding `NS(=O)(=O)OC[C@@H]1C[C@@H](n2ccc3c(-c4cc5ccc(C(F)(F)F)cc5[nH]4)ncnc32)C[C@@H]1O` [Compound I-14, [(1S,2S,4R)-2-hydroxy-4-{4-[6-(trifluoromethyl)-1H-indol-2-yl]-7H-pyrrolo[2,3-d]pyrimidin-7-yl}cyclopentyl]methyl sulfamate], the IC50 lay within 50 to 2000 nM and the inhibition at 0.123 µM was 32%.
The matching figures for `Cc1ccc2cc(-c3ncnc4c3ccn4[C@@H]3C[C@@H](COS(N)(=O)=O)[C@@H](O)C3)[nH]c2c1` [Compound I-06, {(1S,2S,4R)-2-hydroxy-4-[4-(6-methyl-1H-indol-2-yl)-7H-pyrrolo[2,3-d]pyrimidin-7-yl]cyclopentyl}methyl sulfamate]: ≤ 50 nM and 88%.
In the same order, the values of `NS(=O)(=O)OC[C@@H]1C[C@@H](n2ccc3c(-c4cc5cc(F)c(Cl)cc5[nH]4)ncnc32)C[C@@H]1O` [Compound I-09, {(1S,2S,4R)-4-[4-(6-chloro-5-fluoro-1H-indol-2-yl)-7H-pyrrolo[2,3-d]pyrimidin-7-yl]-2-hydroxycyclopentyl}methyl sulfamate] are 50 to 2000 nM and 49%.
In the same order, the values of `COc1cccc2cc(-c3ncnc4c3ccn4[C@@H]3C[C@@H](COS(N)(=O)=O)[C@@H](O)C3)[nH]c12` [Compound I-12, {(1S,2S,4R)-2-hydroxy-4-[4-(7-methoxy-1H-indol-2-yl)-7H-pyrrolo[2,3-d]pyrimidin-7-yl]cyclopentyl}methyl sulfamate] are 50 to 2000 nM and 12%.
In the case of `NS(=O)(=O)OC[C@@H]1C[C@@H](n2ccc3c(-c4cc5cc(F)ccc5[nH]4)ncnc32)C[C@@H]1O` [Compound I-11, {(1S,2S,4R)-4-[4-(5-fluoro-1H-indol-2-yl)-7H-pyrrolo[2,3-d]pyrimidin-7-yl]-2-hydroxycyclopentyl}methyl sulfamate], the IC50 was 50 to 2000 nM and the inhibition at 0.123 µM is 61%.
The matching figures for `NS(=O)(=O)OC[C@@H]1C[C@@H](n2ccc3c(-c4cc5ccc(Cl)cc5[nH]4)ncnc32)C[C@@H]1O` [Compound I-04, {(1S,2S,4R)-4-[4-(6-chloro-1H-indol-2-yl)-7H-pyrrolo[2,3-d]pyrimidin-7-yl]-2-hydroxycyclopentyl}methyl sulfamate]: ≤ 50 nM and 91%.
In the same order, the values of `N#Cc1ccc2cc(-c3ncnc4c3ccn4[C@@H]3C[C@@H](COS(N)(=O)=O)[C@@H](O)C3)[nH]c2c1` [Compound I-05, {(1S,2S,4R)-4-[4-(6-cyano-1H-indol-2-yl)-7H-pyrrolo[2,3-d]pyrimidin-7-yl]-2-hydroxycyclopentyl}methyl sulfamate] are ≤ 50 nM and 86%.
For `Cn1c(-c2ncnc3c2ccn3[C@@H]2C[C@@H](COS(N)(=O)=O)[C@@H](O)C2)cc2ccccc21` [Compound I-02, {(1S,2S,4R)-2-hydroxy-4-[4-(1-methyl-1H-indol-2-yl)-7H-pyrrolo[2,3-d]pyrimidin-7-yl]cyclopentyl}methyl sulfamate HCl], the IC50 was in the range of 50 to 2000 nM and the inhibition at 0.123 µM is 5.9%.
In the same order, the values of `COc1ccc2[nH]c(-c3ncnc4c3ccn4[C@@H]3C[C@@H](COS(N)(=O)=O)[C@@H](O)C3)cc2c1` [Compound I-03, {(1S,2S,4R)-2-hydroxy-4-[4-(5-methoxy-1H-indol-2-yl)-7H-pyrrolo[2,3-d]pyrimidin-7-yl]cyclopentyl}methyl sulfamate] are ≤ 50 nM and 93%.
The matching figures for `Cc1nc(-c2cc3ccccc3[nH]2)c2ccn([C@@H]3C[C@@H](COS(N)(=O)=O)[C@@H](O)C3)c2n1` [Compound I-08, {(1S,2S,4R)-2-hydroxy-4-[4-(1H-indol-2-yl)-2-methyl-7H-pyrrolo[2,3-d]pyrimidin-7-yl]cyclopentyl}methyl sulfamate HCl]: ≤ 50 nM and 74%.
The matching figures for `NS(=O)(=O)OC[C@@H]1C[C@@H](n2ccc3c(-c4cc5ccccc5[nH]4)ncnc32)C[C@@H]1O` [Compound I-01, ((1S,2S,4R)-4-(4-(1H-indol-2-yl)-7H-pyrrolo[2,3-d]pyrimidin-7-yl)-2-hydroxycyclopentyl)methyl sulfamate HCl]: ≤ 50 nM and 87%.
For `Cc1c(-c2ncnc3c2ccn3[C@@H]2C[C@@H](COS(N)(=O)=O)[C@@H](O)C2)[nH]c2ccccc12` [Compound I-13, {(1S,2S,4R)-2-hydroxy-4-[4-(3-methyl-1H-indol-2-yl)-7H-pyrrolo[2,3-d]pyrimidin-7-yl]cyclopentyl}methyl sulfamate], the IC50 fell in the range of 50 to 2000 nM and the inhibition at 0.123 µM stood at 16%.
